This is an account of results in patent US10912756B2, “Method for the treatment of human melanoma” (UNIWERSYTET JAGIELLONSKI, priority 2017, dated 2021).

Converted amounts (≈) assume the structure as drawn.

One data set concerns ovarian cancer. The conditions noted are these: cited from earlier work.
For another data set, the system named is breast cancer. The conditions noted are these: cited from earlier work.
A further data set concerns lung cancer. The settings on record: cited from earlier work.
A further data set has as its system human fibroblast cells. Put plainly: "crystal violet" proliferation assay. The settings on record: simvastatin in various concentrations with TCM regimen.
Data set [1] has as its system WM35 human melanoma cells. As to the kind of experiment: Taxol take-up into cells, HPLC. The format is cell-based. How it is done:
(§1) The tests were carried out using cell lines of human melanoma originating from three stages of development: WM35 of the radial growth phase, WM239A metastatic line and A375P metastasis to lungs, malignant line. For every measuring point, cells were grown in 4 100 mm coming dishes for each separate cell line. […] The analyses were repeated thrice in independent experiments, obtaining similar results. The results were averaged and reported in μM per a million of cells. The cells were counted using a Countess Invitrogen™ counter.
(§2) For determination of the amount of drug absorbed by the melanoma cells, chromatographic method was used. An HPLC system (Shimadzu Corporation Japan) consisting of two LC 10AT vp high-pressure pumps, a DGU-14A degasser, a CTO-10 ASvp oven for the column thermostating, an SIL-10 ADvp automatic sample feeder, and an SPD-M10 Avp diode detector, was used for the measurements. CLASS-VP 7.2.1 software was used.
(§3) The samples were separated on a Phenomenex Gemini −Nx 5μ C18 (4.6×150 mm i.d) column+guard column from Phenomenex (4×3 mm i.d.) with identical packing, at a temperature of 20° C. Eluant with the following composition: solvent A (water+0.1% trifluoroacetic acid [TFA]) and solvent B (acetonitrile 0.1% TFA) was used. The sample was separated in the following gradient system: 20% of solvent B to 30% of solvent B linearly for 15 min, next linearly to 34% for 6 min, linearly to 100% of solvent B for 24 min consecutively, then 10 min isocratically at 100% of solvent B. The column was recalibrated for […] in 20% of solvent B. 20-μl samples were introduced at a flowrate of 1.0 ml/min during 65 min with a UV-Vis detection at 220 nm.
(§4) The results were validated in two steps, by comparing the obtained Rt values to Rt values of standards, and by analysis of spectra of the separated compound and their comparison with spectra of the standards.
(§5) A frozen dry pellet was flushed with 650 μl of a solution (2/1 isopropanol, methanol+10% acetonitrile), then sonicated 3×15 s and frozen for 24 h. After thawing, the sample was shaken lightly for 30 min, 200 μl of physiological saline and 1083 μl of chloroform were added, stirring vigorously for 3×4 min. Separation of the organic phase from the aqueous phase was carried out by centrifugation at 10,000 revolutions/10 min. The collected chloroform phase were subjected to concentration under partial vacuum in a concentrator at 4° C., and to second drying under argon atmosphere. The precipitate was dissolved in 100 μl of methanol and separated by HPLC.
(§6) The tests were carried out using methods described in detail in Example 3.

The subject of data set [2] is human melanoma cells (WM35, WM239A, A375P). Put plainly: "crystal violet" proliferation assay. Type of data set: cell-based. The conditions noted are these: statin 50-12.5 μM with docetaxel regimen at constant 0.5 μM. The method, then: The tests were carried out using cell lines of human melanoma originating from three stages of development: WM35 of the radial growth phase, WM239A metastatic line and A375P metastasis to lungs, malignant line.
The following statins were used in the studies: atorvastatin, fluvastatin, rosuvastatin, and pravastatin. The tests were carried out using cell lines of human melanoma originating from invasive stages of development: WM239A metastatic line and A375P P-metastasis to lungs, malignant line. […] Methodology according to that described in Example 1 was used. Additionally, the toxicity was analysed by investigations of reduced and oxidised glutathione contents. HPLC method was used.

For data set [3], the system named is human melanoma cells. As to the kind of experiment: Taxol take-up into cells, HPLC (conclusions over the lines). The settings on record: for effect on take-up of taxanes into human melanoma cells: statin with docetaxel. Type of data set: cell-based.
In data set [4] the test system is A375P human melanoma cells. Put plainly: GSH/GSSG glutathione content and cell count (toxicity), RP-HPLC. Type of data set: cell-based. The conditions noted are these: Docetaxel 0.5 μM, statin 20 μM. How it is done:
(§7) Toxicities of the applied drugs were tested by a measurement of reduced and oxidised glutathione GSH/GSSG contents in the human melanoma cells. The glutathione contents were analysed by RP-HPLC. A method from prior art [references 1-4] was used.
(§8) The applied method consists in a reaction of GSH and GSSG with N-dinitrofluorobenzene, yielding N,S-dinitro-derivatives in the case of GSH and N,N-dinitro-derivatives in the case of GSSG. The elutions were carried out in a water-acetonitrile system, in accordance to the increasing acetonitrile concentration.
(§9) Determination of the levels of reduced glutathione, oxidised glutathione, and total glutathione were carried out using an RP-HPLC system from Shimadzu (SPD-M10VP photodiode matrix detector, class VP 7.2 software). The separations were carried out at a temperature of 20° C. using a Luna 5u C18 (Z) column (250 mm×4.6 mm, from Phenomenex), with a guard column with the same packing. Grade solvents were used as the eluant in the separations: acetonitrile/0.1% TFA and H2O/0.1% TFA. The separation was obtained in gradient elution, under a non-linear increase in the acetonitrile concentration from 20% to 100% during 90 minutes, at a flow of 1.0 ml/min. Samples with a volume of 20 μl were introduced into the column, filtered earlier using PTFE filters with a pore diameter of 0.2 μm (Supelco). The analysis of the compounds was carried out with UV-VIS detection at 365 nm. The cells were suspended in a 70% PCA/1 mM BPDS/0.9% NaCl solution in a 1:3 ratio, sonicated for 3×5 seconds (Bandelin SonoplusGM70) at a temperature of 4° C. and centrifuged under 1400 g at a temperature of 4° C. for 10 minutes. The prepared supernatant was used for the assays.
(§10) For identification of the tested compounds, proper standard solutions were used: GSH and GSSG.
(§11) All standard solutions were prepared in 10% PCA/1 mM BPDS, in redistilled water.
(§12) To determine the GSH and GSSG levels, calibration curves were used, prepared for standard solutions in the concentration range of 13 to 75 nmol/ml of the corresponding cell homogenate. The incubation mixture contained, respectively: supernatant originating from the cells, N-methyl-L-lysine (internal standard), 10% PCA/1 mM BPDS, 2 M KOH-2.4 M KHCO3 and 1% DNFB.
(§13) In the case of the calibration curve, the incubation mixture was prepared in an analogous way, but various volumes of standard solutions were added, and the final volume was controlled by the amount of the 10% PCA/1 mM BPDS added. After 24 h derivatization at room temperature, in darkness, the samples were acidified by adding 70% PCA and centrifuged for 2 minutes under 5600 g. The obtained supernatant was filtered through a PTFE-Supelco filter, introduced into the column, and 90-minute separation of the analysed compounds was carried out. The chromatograms were worked out identifying the compounds being separated according to their retention times, based on the standards available, and totalising the surface areas of the chromatographic peaks in the ranges of selected retention times.
(§14) Toxicities of the applied drugs were tested by a measurement of GSH/GSSG contents in the human melanoma cells. The glutathione contents were analysed by HPLC. A method drawn from the papers by [Bronowicka, Wróbel, Dominik] was used, described in detail in Example 2.

Data set [5] concerns WM239A human melanoma cells. The data set is described as above. Type of data set: cell-based. The settings on record: Docetaxel 0.5 μM, statin 20 μM. The method, then: as §7, §8, §9, §10, §11, §12, §13, §14
For data set [6], the system named is WM35 human melanoma cells. The description is as above. Type of data set: cell-based. The conditions noted are these: Docetaxel 0.5 μM, statin 20 μM. How it is done:
as §7, §8, §9, §10, §11, §12, §13, §14

Data set [7] deals with A375P human melanoma cells. Put plainly: Taxol take-up into cells, HPLC. The format is cell-based. How it is done:
as §1, §2, §3, §4, §5, §6

The test system of data set [8] is WM239A human melanoma cells. Put plainly: Taxol take-up into cells, HPLC. The format is cell-based. How it is done:
as §1, §2, §3, §4, §5, §6

For data set [9] the following is noted: cited from earlier work.
Data set [10] has as its system human melanoma cells. Put plainly: GSH/GSSG toxicity (conclusions over the lines). Type of data set: cell-based. The conditions noted are these: GSH/GSSG contents; statin 20 μM with Docetaxel 0.5 μM. The method, then:
as §7, §8
Determination of the levels of reduced glutathione, oxidised glutathione, and total glutathione were carried out using an RP-HPLC system from Shimadzu (SPD-M10VP photodiode matrix detector, class VP 7.2 software). The separations were carried out at a temperature of 20° C. using a Luna 5u C18 (Z) column (250 mm×4.6 mm, from Phenomenex), with a guard column with the same packing. Grade solvents were used as the eluant in the separations: acetonitrile/0.1% TFA and H2O/0.1% TFA. The separation was obtained in gradient elution, under a non-linear increase in the acetonitrile concentration from 20% to 100% during 90 minutes, at a flow of 1.0 ml/min. […]
Toxicities of the applied drugs were tested by a measurement of GSH/GSSG contents in the human melanoma cells. The glutathione contents were analysed by HPLC. […]

For data set [11] the following is noted: water/n-octanol; cited from earlier work.
[12] abbreviates: cell count 22.5 mln, in the presence of various statins.
[13] abbreviates: relative to Docetaxel (T) = 100.
The mark [14] stands for this setting: cell count 34.2 mln, in the presence of various statins.
Setting [15] is: WM 35, cell count 35.4 mln, in the presence of various statins.

Take `CC(=O)O[C@H]1C(=O)[C@@]2(C)[C@H]([C@H](OC(=O)c3ccccc3)[C@]3(O)C[C@H](OC(=O)[C@H](O)[C@@H](NC(=O)c4ccccc4)c4ccccc4)C(C)=C1C3(C)C)[C@]1(OC(C)=O)CO[C@@H]1C[C@@H]2O` [Paclitaxel, paclitaxel]: the efficiency in treatment with ovarian cancer is listed as 30%; in the data set on breast cancer it was 50%; with lung cancer, 20%.
`CCC(C)(C)C(=O)O[C@H]1C[C@@H](C)C=C2C=C[C@H](C)[C@H](CC[C@@H]3C[C@@H](O)CC(=O)O3)[C@H]21` [simvastatin]: the “effect on proliferation of normal cells” value with human fibroblast cells is listed as “does not affect the normal cells of human skin such as fibroblasts”.
`CC(C)c1c(C(=O)Nc2ccccc2)c(-c2ccccc2)c(-c2ccc(F)cc2)n1CC[C@@H](O)C[C@@H](O)CC(=O)O` [atorvastatin]: the “increase of Taxol content in melanoma cells, on average” value in data set [1] (WM35 (radial phase), in relation to the control with Taxol alone) was “two hundred percent”. The “effect on proliferation of human melanoma cells” value in data set [2] is on record as “permanently inhibit synergistically”. In the data set with human melanoma cells [3] (melanoma cells from more advanced progression phases, vs Taxol alone), the “take-ups higher by” value is given as 30-45%. Further, the “effect on take-up of taxanes into human melanoma cells” value in the data set on human melanoma cells [3] was “selectively increases the taxanes take-up into human melanoma cells”.
Turning to `CC(=O)O[C@@]12CO[C@@H]1C[C@H](O)[C@@]1(C)C(=O)[C@H](O)C3=C(C)[C@@H](OC(=O)[C@H](O)[C@@H](NC(=O)OC(C)(C)C)c4ccccc4)C[C@@](O)([C@@H](OC(=O)c4ccccc4)[C@H]21)C3(C)C` [T, Docetaxel], the GSH in data set [4] (48 h) is 0.94 nmol/million of cells; in [5] (48 h), 1.07 nmol/million of cells; in data set [6] (48 h), 1.12 nmol/million of cells. Also, the GSH/GSSG stood at 6.78 in data set [4] (48 h), 6.53 in [5] (48 h) and 0.59 in [6] (48 h). Moreover, the GSSG is 0.14 nmol/million of cells in [4] (48 h), 0.16 nmol/million of cells in data set [5] (48 h) and 1.88 nmol/million of cells in data set [6] (48 h). The Total glutathione in data set [4] (48 h) is 1.22 nmol/million of cells; in [5] (48 h), 1.40 nmol/million of cells; in data set [6] (48 h), 4.8 nmol/million of cells. Besides, the figures for the “Cell count after 48 h” value in data set [4] (initial count 5.9 mln), in data set [5] (initial count 6.2 mln) and in data set [6] (initial count 7.1 mln) were 11.1 mln, 10.1 mln and 10.1 mln, respectively. The Taxol concentration in data set [7] (setting [12]) was 36 µM; in [8] (setting [14]), 74.8 µM; in [1] (setting [15]) it was 57.08 µM. The “Taxol concentration per million of cells” value in [7] (setting [12]) is listed as 1.60 μM/million of cells; in data set [8] (setting [14]), 2.18 μM/million of cells; in [1] (setting [15]), 1.61 μM/million of cells. Moreover, the “% content in cells” value is 100% in data set [7] (setting [13]); 100% in data set [8] (setting [13]); 100% in data set [1] (WM 35, relative to Docetaxel (T) = 100).
`CC(C)c1nc(N(C)S(C)(=O)=O)nc(-c2ccc(F)cc2)c1/C=C/[C@@H](O)C[C@@H](O)CC(=O)O` [rosuvastatin]: the “effect on take-up of taxanes into human melanoma cells” value with human melanoma cells [3] is recorded as “weaker effect”. Besides, the solubility in water in data set [9] was 88.6 µg/mL (≈ 184 µM).
Turning to `CC(C)n1c(/C=C/C(O)CC(O)CC(=O)O)c(-c2ccc(F)cc2)c2ccccc21` (centres unmarked) [fluvastatin], the solubility in water in [9] was 0.46 µg/mL (≈ 1.12 µM).
A word on the Log P: it is a log measure of how a compound divides between an organic and an aqueous phase. Consider `CC[C@H](C)C(=O)O[C@H]1C[C@H](O)C=C2C=C[C@H](C)[C@H](CC[C@@H](O)C[C@@H](O)CC(=O)O)[C@H]21` [pravastatin], for which, in the data set on human melanoma cells [10], the “toxicity against human melanoma cells” value is “is not toxic and it does not affect the malignant cells”. In [9], the solubility in water was 19000 µg/mL (≈ 44800 µM). In addition, the lipophilicity (Log P) in [11] is reported as 0.59.
